The values that follow come from PMC6153800, “Structure-Based Drug Design and Characterization of Sulfonyl-Piperazine Benzothiazinone Inhibitors of DprE1 from Mycobacterium tuberculosis” (Antimicrobial Agents and Chemotherapy, 2018).

SMILES strings stand for the structures. Converted amounts (≈) assume the structure as drawn.

In series [1] the test system is M. tuberculosis H37Rv. Also on record: method as in PMID 24500695. The note with it: ref [5]; cited from earlier work.
In series [2] the test system is M. tuberculosis H37Rv. In words: Murine model of chronic TB. Format: in vivo, Mycobacterium tuberculosis. As to conditions: BALB/cByJ mice, 25 mg/kg by gavage 5 days a week for 4 weeks.
The subject of the next series is HepG2 cells. The note with it: HepG2 cells, 3 days.
The subject of series [3] is M. tuberculosis H37Rv. In words: microbe, parasite or virus in culture. The series is classed as cell-based. As to conditions: Mycobacterium tuberculosis, H37RV; REMA, 7H9 broth, 6 days + 24 h resazurin; read-out: MIC99 H37Rv. Background: Resazurin is reduced to fluorescent resorufin, in cell work by metabolically active cells.
The nature of series [4]: Water solubility, shake flask method. Format: physicochemical. The protocol:
Water solubility measurements were performed using the shake flask method ([28]). Approximately 1 ml of water was added to 1 mg of compound in an Eppendorf tube, followed by incubation for 3 days at 25°C with shaking at 800 rpm. Suspensions were centrifuged at 16,100 × g for 10 min, and the supernatant was filtered using 0.22-μm-pore size filters. Filtrates were injected onto a high-performance liquid chromatography (HPLC) column (Dionex), and the amount of compound was quantified using a calibration curve.

For series [5] the following is noted: human microsomes; cited from earlier work.
For series [6] the following is noted: mouse microsomes; cited from earlier work.

For `O=c1nc(N2CCN(CC3CCCCC3)CC2)sc2c([N+](=O)[O-])cc(C(F)(F)F)cc12` [PBTZ169, macozinone, reference compound], the “MIC against M. tuberculosis” value in the series on M. tuberculosis H37Rv [1] is listed as 0.3 nM (≈ 0.137 ng/mL). Moreover, in the series with M. tuberculosis H37Rv [2], the “Bacterial burden in lungs lower than untreated control” value was found to be 1.03 log10 CFU and the “Bacterial burden in spleens lower than untreated control” value was 1.47 log10 CFU. In addition, the TD50 in the series on HepG2 cells was 44.00 µg/mL. The MIC with M. tuberculosis H37Rv [3] worked out at 0.2 ng/mL. The “Times more soluble in water than calculated” value in series [4] was 400 times. In addition, the CLint human microsome in series [5] is recorded as 28 μl/min/mg protein. The CLint mouse microsome in series [6] is listed as 36.7 μl/min/mg protein.
